According to ChEMBL document CHEMBL1134725, “2-(Anilinomethyl)imidazolines as alpha(1)-adrenoceptor agonists: the identification of alpha(1A) subtype selective 2'-carboxylic acid esters and amides” (Bioorg Med Chem Lett, 2001):
pEC50, pIC50: −log10 of the molar value.

What was measured:
[1] = molecular target: T1, Alpha-1A adrenergic receptor (Homo sapiens) (UniProt P35348); test: Efficacy against alpha 1A adrenoceptor in human expressed as phenylephrine response at the dose of 40 uM; format: functional
T1 sequence (whole entry): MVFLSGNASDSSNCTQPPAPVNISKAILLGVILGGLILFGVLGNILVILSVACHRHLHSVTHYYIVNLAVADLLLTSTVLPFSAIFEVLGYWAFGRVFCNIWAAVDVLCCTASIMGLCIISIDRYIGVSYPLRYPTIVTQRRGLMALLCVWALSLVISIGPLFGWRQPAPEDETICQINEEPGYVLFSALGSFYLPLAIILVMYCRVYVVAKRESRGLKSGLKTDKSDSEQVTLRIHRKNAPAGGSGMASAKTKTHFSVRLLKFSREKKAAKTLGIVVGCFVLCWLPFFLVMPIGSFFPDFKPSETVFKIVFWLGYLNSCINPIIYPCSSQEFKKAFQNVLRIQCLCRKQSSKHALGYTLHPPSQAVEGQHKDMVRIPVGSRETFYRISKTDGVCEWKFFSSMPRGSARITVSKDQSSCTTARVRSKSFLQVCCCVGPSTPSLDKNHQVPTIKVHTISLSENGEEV

[2] = molecular target: T2, Alpha-1A adrenergic receptor (Homo sapiens, UniProt P35348); test: Agonist potency against cloned human alpha 1A adrenoceptor expressed in rat-1 fibroblasts.; format: functional
T2 sequence (P35348 whole entry): T1 sequence (whole entry)

[3] = molecular target: T3, Alpha-1B adrenergic receptor (Homo sapiens) (UniProt P35368); test: Efficacy against alpha 1B-adrenoceptor in human expressed as phenylephrine response at the dose of 40 uM.; format: functional
T3 sequence (whole entry): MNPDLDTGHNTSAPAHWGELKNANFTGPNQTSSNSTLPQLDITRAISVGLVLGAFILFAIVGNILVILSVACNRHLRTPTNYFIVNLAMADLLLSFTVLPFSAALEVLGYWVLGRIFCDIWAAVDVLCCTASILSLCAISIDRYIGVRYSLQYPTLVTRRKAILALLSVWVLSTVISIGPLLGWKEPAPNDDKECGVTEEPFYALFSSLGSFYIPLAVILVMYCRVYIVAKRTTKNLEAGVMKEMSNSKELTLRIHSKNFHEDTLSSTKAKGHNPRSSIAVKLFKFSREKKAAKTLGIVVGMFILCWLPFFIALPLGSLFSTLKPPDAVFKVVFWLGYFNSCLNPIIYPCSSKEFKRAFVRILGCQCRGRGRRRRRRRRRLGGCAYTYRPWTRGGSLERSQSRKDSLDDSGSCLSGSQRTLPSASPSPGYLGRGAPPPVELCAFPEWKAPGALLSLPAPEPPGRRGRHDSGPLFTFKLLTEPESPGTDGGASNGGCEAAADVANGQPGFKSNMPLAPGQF

[4] = molecular target: T4, Alpha-1D adrenergic receptor (Homo sapiens) (UniProt P25100); test: Tested for efficacy against alpha 1D-adrenoceptor in human expressed as phenylephrine response at the dose of 40 uM; format: functional
T4 sequence (whole entry): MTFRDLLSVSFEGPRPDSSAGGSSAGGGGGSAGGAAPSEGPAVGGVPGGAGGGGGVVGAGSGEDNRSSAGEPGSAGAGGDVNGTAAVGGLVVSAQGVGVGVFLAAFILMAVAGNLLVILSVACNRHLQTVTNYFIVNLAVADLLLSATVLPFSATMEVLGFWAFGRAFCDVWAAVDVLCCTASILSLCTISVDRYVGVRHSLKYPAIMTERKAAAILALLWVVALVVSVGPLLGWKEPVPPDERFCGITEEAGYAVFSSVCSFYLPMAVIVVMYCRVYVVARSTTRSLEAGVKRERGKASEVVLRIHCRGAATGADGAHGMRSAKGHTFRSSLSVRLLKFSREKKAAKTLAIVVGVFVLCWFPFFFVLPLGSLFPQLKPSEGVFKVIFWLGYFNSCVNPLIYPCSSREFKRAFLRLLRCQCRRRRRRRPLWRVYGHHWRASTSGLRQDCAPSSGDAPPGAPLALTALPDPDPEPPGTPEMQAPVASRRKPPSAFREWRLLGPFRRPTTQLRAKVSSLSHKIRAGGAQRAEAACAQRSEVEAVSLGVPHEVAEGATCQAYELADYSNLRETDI

[5] = molecular target: T5, Alpha-1D adrenergic receptor (Homo sapiens, UniProt P25100); test: Potency against cloned human alpha 1D-adrenoceptor expressed in rat-1 fibroblasts.; format: functional
T5 sequence (P25100 whole entry): T4 sequence (whole entry)

[6] = molecular target: T6, Alpha-1B adrenergic receptor (Homo sapiens, UniProt P35368); test: Potency against cloned human alpha 1B adrenoceptor expressed in rat-1 fibroblasts.; format: functional
T6 sequence (P35368 whole entry): T3 sequence (whole entry)

[7] = molecular target: T5, Alpha-1D adrenergic receptor; test: Concentration required for 50% inhibition of binding against human Alpha-1D adrenergic receptor
[8] = molecular target: T2, Alpha-1A adrenergic receptor; test: Concentration required for 50% inhibition of binding against Alpha-1A adrenergic receptor in human
[9] = molecular target: T6, Alpha-1B adrenergic receptor; test: Concentration required for 50% inhibition of binding against human Alpha-1B adrenergic receptor

O=C(c1ccccc1NCC1=NCCN1)N1CCCCC1 showed a Max [1] of 105%, a pEC50 [2] of 6.40 and a Max [3] of 106%. It also gave a Max [4] of 88%, a pEC50 [5] of 6.40 and a pEC50 [6] of 7.10.

With c1ccc(C2CC2)c(OCC2=NCCN2)c1 [CIRAZOLINE] the Max [1] was 93%, the pEC50 [2] was 7.90 and the Max [3] was 72%. The Max [4] was 31% and the pEC50 [6] was 7.20.

CN(C)C(=O)c1ccccc1NCC1=NCCN1 was tested, and the Max [1] was 104%, the pEC50 [2] was 7.70 and the Max [3] was 93%. For the same molecule, the Max [4] was 58%, the pEC50 [5] was 6.70 and the pEC50 [6] was 7.10.

In the case of CCC(CC)OC(=O)c1ccccc1NCC1=NCCN1, the Max [1] was 94%, the pEC50 [2] was 7.70 and the pEC50 [5] was less than 5.30. For the same molecule, the pEC50 [6] was less than 5.30.

O=C(NC1CCCC1)c1ccccc1NCC1=NCCN1 was tested, and the pEC50 [2] was less than 5.30, the pEC50 [5] was less than 5.30 and the pEC50 [6] was less than 5.30.

CCOC(=O)c1ccccc1NCC1=NCCN1 was tested, and the Max [1] was 104%, the pEC50 [2] was 7.90 and the Max [3] was 105%. It also gave a Max [4] of 41%, a pEC50 [5] of 7.20 and a pEC50 [6] of 6.80.

CNC(=O)c1ccccc1NCC1=NCCN1 showed a Max [1] of 104%, a pEC50 [2] of 8.60 and a Max [3] of 99%. The Max [4] was 115%, the pEC50 [5] was 8.00 and the pIC50 [7] was 7.05. For the same molecule, the pIC50 [8] was 6.67, the pIC50 [9] was 6.16 and the pEC50 [6] was 8.80.

Work on CCCCOC(=O)c1ccccc1NCC1=NCCN1 yielded a Max [1] of 114%, a pEC50 [2] of 8.00 and a Max [3] of 63%. The Max [4] was 31%, the pEC50 [5] was 7.80 and the pEC50 [6] was 7.60.

Molecule COC(=O)c1ccccc1NCC1=NCCN1 has a Max [1] of 110%, a pEC50 [2] of 9.10 and a Max [3] of 107%. The Max [4] was 80%, the pEC50 [5] was 9.30 and the pEC50 [6] was 9.40.

Molecule CCCNC(=O)c1ccccc1NCC1=NCCN1 has a Max [1] of 104%, a pEC50 [2] of 8.10 and a Max [3] of 77%. For the same molecule, the Max [4] was 69%, the pEC50 [5] was 6.80 and the pEC50 [6] was 7.10.

CCN(CC)C(=O)c1ccccc1NCC1=NCCN1 gave a Max [1] of 105%, a pEC50 [2] of 7.50 and a Max [3] of 32%. It also gave a pEC50 [5] of less than 5.30, a pIC50 [7] of 5.18 and a pIC50 [8] of 6.07. It also gave a pIC50 [9] of 5.23 and a pEC50 [6] of 5.70.

Work on CC(C)(C)OC(=O)c1ccccc1NCC1=NCCN1 yielded a Max [1] of 96%, a pEC50 [2] of 8.10 and a Max [3] of 81%. For the same molecule, the pEC50 [5] was less than 5.30 and the pEC50 [6] was 7.20.

Molecule O=C(NC1CCC1)c1ccccc1NCC1=NCCN1 has a pEC50 [2] of less than 5.30, a pEC50 [5] of less than 5.30 and a pEC50 [6] of less than 5.30.

CCN(C)C(=O)c1ccccc1NCC1=NCCN1 gave a Max [1] of 105%, a pEC50 [2] of 7.30 and a Max [3] of 98%. It also gave a Max [4] of 69%, a pEC50 [5] of 6.20 and a pIC50 [7] of 5.17. It also gave a pIC50 [8] of 5.69, a pIC50 [9] of 4.98 and a pEC50 [6] of 6.60.

For O=C(OC1CCCC1)c1ccccc1NCC1=NCCN1, the Max [1] was 58%, the pEC50 [2] was 7.40 and the pEC50 [5] was less than 5.30. It also gave a pEC50 [6] of less than 5.30.

In the case of CCNC(=O)c1ccccc1NCC1=NCCN1, the Max [1] was 102%, the pEC50 [2] was 7.90 and the Max [3] was 64%. It also gave a Max [4] of 33%, a pEC50 [5] of 7.10 and a pEC50 [6] of 6.70.

Work on O=C(c1ccccc1NCC1=NCCN1)N1CCCC1 yielded a Max [1] of 105%, a pEC50 [2] of 6.90 and a Max [3] of 79%. It also gave a pEC50 [5] of less than 5.30 and a pEC50 [6] of 6.50.

Molecule CC(C)COC(=O)c1ccccc1NCC1=NCCN1 has a Max [1] of 68%, a pEC50 [2] of 6.30 and a Max [3] of 90%. It also gave a Max [4] of 59%, a pEC50 [5] of 6.60 and a pEC50 [6] of 7.10.

With CC(C)NC(=O)c1ccccc1NCC1=NCCN1 the Max [1] was 102%, the pEC50 [2] was 7.30 and the Max [3] was 95%. It also gave a Max [4] of 59%, a pEC50 [5] of 6.50 and a pEC50 [6] of 6.90.

In the case of O=C(OC1CCCCC1)c1ccccc1NCC1=NCCN1, the pEC50 [2] was less than 5.30, the pEC50 [5] was less than 5.30 and the pEC50 [6] was less than 5.30.

For CC(C)CNC(=O)c1ccccc1NCC1=NCCN1, the Max [1] was 58%, the pEC50 [2] was 7.10 and the Max [3] was 90%. It also gave a Max [4] of 31%, a pEC50 [5] of 7.80 and a pEC50 [6] of 7.90.

For CC(C)OC(=O)c1ccccc1NCC1=NCCN1, the Max [1] was 100%, the pEC50 [2] was 8.50 and the pEC50 [5] was less than 5.30. The pIC50 [7] was 5.70, the pIC50 [8] was 6.65 and the pIC50 [9] was 5.75. The pEC50 [6] was less than 5.30.

CCC(C)OC(=O)c1ccccc1NCC1=NCCN1 (configuration not stated) was tested, and the Max [1] was 96%, the pEC50 [2] was 8.90 and the pEC50 [5] was less than 5.30. For the same molecule, the pEC50 [6] was less than 5.30.

In the case of Cc1cc(C(C)(C)C)c(O)c(C)c1CC1=NCCN1, the Max [1] was 74%.

With c1ccc2c(CC3=NCCN3)cccc2c1 [NAPHAZOLINE] the Max [1] was 72%, the pEC50 [2] was 7.20 and the pEC50 [5] was less than 5.30. The pEC50 [6] was less than 5.30.

Molecule O=C(NC1CC1)c1ccccc1NCC1=NCCN1 has a Max [1] of 99%, a pEC50 [2] of 7.80 and a Max [3] of 50%. The pEC50 [5] was less than 5.30, the pIC50 [7] was 5.77 and the pIC50 [8] was 5.98. For the same molecule, the pIC50 [9] was 5.65 and the pEC50 [6] was 6.60.

CCC(C)NC(=O)c1ccccc1NCC1=NCCN1 (configuration not stated) was tested, and the Max [1] was 82%, the pEC50 [2] was 6.30 and the pEC50 [5] was less than 5.30. The pEC50 [6] was less than 5.30.

CCCCNC(=O)c1ccccc1NCC1=NCCN1 showed a Max [1] of 103%, a pEC50 [2] of 7.70 and a pEC50 [5] of less than 5.30. For the same molecule, the pIC50 [7] was 5.83, the pIC50 [8] was 6.33 and the pIC50 [9] was 5.71. The pEC50 [6] was less than 5.30.

CCCN(CC)C(=O)c1ccccc1NCC1=NCCN1 gave a Max [1] of 115%, a pEC50 [2] of 7.00 and a pEC50 [5] of less than 5.30. The pEC50 [6] was less than 5.30.
